Results reported in ChEMBL document CHEMBL3407332, “An efficient synthesis of new caffeine-based chalcones, pyrazolines and pyrazolo[3,4-b][1,4]diazepines as potential antimalarial, antitrypanosomal and antileishmanial agents” (Eur J Med Chem, 2015).
Converted amounts (≈) assume the structure as drawn.

Tests used:
[1] = Cytotoxicity against human U937 cells assessed as cell viability after 72 hrs by MTT assay; assay type: cell-based, U-937; conditions: read-out: LC50
[2] = tested on: Leishmania panamensis; assay: Antileishmanial activity against amastigote stage of Leishmania panamensis MHOM/CO/87/UA140-EpiR-GFP infected in human U937 cells assessed as parasite growth inhibition at 20 ug/mL after 72 hrs by flow cytometric analysis relative to control; assay type: functional; conditions: MHOM/CO/87/UA140, U-937, 72 h, read-out: GI
[3] = tested on: Plasmodium falciparum; assay: Antimalarial activity against asynchronic culture of Plasmodium falciparum NF54 assessed as parasite growth inhibition at 20 ug/mL after 48 hrs by ethidium bromide staining-based spectrofluorometric analysis relative to control; assay type: functional; conditions: NF54, 48 h, read-out: GI
[4] = tested on: Trypanosoma cruzi; assay: Antitrypanosomal activity against amastigote stage of Trypanosoma cruzi Tulahuen infected in human U937 cells assessed as parasite growth inhibition at 20 ug/mL after 72 hrs by beta-galactosidase reporter gene assay relative to control; assay type: functional; conditions: U-937, 72 h, read-out: GI
[5] = tested on: Leishmania panamensis; assay: Antileishmanial activity against amastigote stage of Leishmania panamensis MHOM/CO/87/UA140-EpiR-GFP infected in human U937 cells assessed as parasite growth inhibition after 72 hrs by flow cytometric analysis; assay type: functional, organism-based; conditions: MHOM/CO/87/UA140, U-937, 72 h
[6] = Hemolytic activity in human RBC after 48 hrs by spectrophotometric analysis; assay type: ADME, cell-based, Erythrocyte; conditions: human red blood cells (RBC), read-out: LC50
[7] = tested on: Plasmodium falciparum; assay: Antimalarial activity against asynchronic culture of Plasmodium falciparum NF54 assessed as parasite growth inhibition after 48 hrs by ethidium bromide staining-based spectrofluorometric analysis; assay type: functional, organism-based; conditions: NF54, 48 h
[8] = tested on: Trypanosoma cruzi; assay: Antitrypanosomal activity against amastigote stage of Trypanosoma cruzi Tulahuen infected in human U937 cells assessed as parasite growth inhibition after 72 hrs by beta-galactosidase reporter gene assay; assay type: functional, organism-based; conditions: U-937, 72 h

`COc1ccc(C2=NN(C(C)=O)C(c3ccc(Oc4nc5c(c(=O)n(C)c(=O)n5C)n4C)c(OC)c3)C2)cc1` (centres undefined) showed a CC50 at 72 h [1] of over 200 µg/mL, an inhibition of growth at 20 µg/mL [2] of 76.2% and an inhibition of growth at 20 µg/mL [3] of 11.6%. It also gave an inhibition of growth at 20 µg/mL [4] of 0% and an EC50 [5] of 14.6 µg/mL (≈ 27.4 µM).

Work on `COc1cc(C2CC(c3cc(OC)c(OC)c(OC)c3)=NN2C(C)=O)ccc1Oc1nc2c(c(=O)n(C)c(=O)n2C)n1C` (centres undefined) yielded a CC50 at 72 h [1] of over 200 µg/mL, an inhibition of growth at 20 µg/mL [2] of 87.6% and an inhibition of growth at 20 µg/mL [3] of 46.3%. It also gave an inhibition of growth at 20 µg/mL [4] of 15.8% and an EC50 [5] of 12.6 µg/mL (≈ 21.3 µM).

With `COc1cc(C2CC(c3ccccc3)=NN2C=O)ccc1Oc1nc2c(c(=O)n(C)c(=O)n2C)n1C` (centres undefined) the CC50 at 72 h [1] was over 200 µg/mL, the inhibition of growth at 20 µg/mL [2] was 53.1% and the inhibition of growth at 20 µg/mL [3] was 30.8%. For the same compound, the inhibition of growth at 20 µg/mL [4] was 0%.

Compound `COc1cc(C2CC(c3ccc(Cl)cc3)=NN2C=O)ccc1Oc1nc2c(c(=O)n(C)c(=O)n2C)n1C` (centres undefined) has a CC50 at 72 h [1] of over 200 µg/mL, an inhibition of growth at 20 µg/mL [2] of 0% and an inhibition of growth at 20 µg/mL [3] of 23.9%. The inhibition of growth at 20 µg/mL [4] was 21.1%.

`COc1cc(C2CC(c3ccc(Br)cc3)=NN2C=O)ccc1Oc1nc2c(c(=O)n(C)c(=O)n2C)n1C` (centres undefined) gave a CC50 at 72 h [1] of over 200 µg/mL, an inhibition of growth at 20 µg/mL [2] of 70.4% and an inhibition of growth at 20 µg/mL [3] of 46.9%. It also gave an inhibition of growth at 20 µg/mL [4] of 36.9% and an EC50 [5] of 16.1 µg/mL (≈ 28.4 µM).

In the case of `COc1cc(C2CC(c3ccc(C)cc3)=NN2C=O)ccc1Oc1nc2c(c(=O)n(C)c(=O)n2C)n1C` (centres undefined), the CC50 at 72 h [1] is reported as over 200 µg/mL, the inhibition of growth at 20 µg/mL [2] is reported as 0% and the inhibition of growth at 20 µg/mL [3] is reported as 37.1%. It also gave an inhibition of growth at 20 µg/mL [4] of 0%.

In the case of `COc1ccc(C2=NN(C=O)C(c3ccc(Oc4nc5c(c(=O)n(C)c(=O)n5C)n4C)c(OC)c3)C2)cc1` (centres undefined), the CC50 at 72 h [1] is reported as 38.7 µg/mL (≈ 74.6 µM), the inhibition of growth at 20 µg/mL [2] is reported as 48.1% and the inhibition of growth at 20 µg/mL [3] is reported as 41.7%. It also gave an inhibition of growth at 20 µg/mL [4] of 27%.

With `COc1cc(C2CC(c3cc(OC)c(OC)c(OC)c3)=NN2C=O)ccc1Oc1nc2c(c(=O)n(C)c(=O)n2C)n1C` (centres undefined) the CC50 at 72 h [1] was over 200 µg/mL, the inhibition of growth at 20 µg/mL [2] was 30.1% and the inhibition of growth at 20 µg/mL [3] was 29.5%. It also gave an inhibition of growth at 20 µg/mL [4] of 9.9%.

`COc1cc(C2CC(c3ccccc3)=Nc3c(C)nn(-c4ccccc4)c3N2)ccc1Oc1nc2c(c(=O)n(C)c(=O)n2C)n1C` (centres undefined) showed a CC50 at 72 h [1] of over 200 µg/mL, an inhibition of growth at 20 µg/mL [2] of 0% and an HC50 at 48 h [6] of over 200 µg/mL. It also gave an inhibition of growth at 20 µg/mL [3] of 85.9%, an inhibition of growth at 20 µg/mL [4] of 15.7% and an IC50 [7] of 13.3 µg/mL (≈ 21.6 µM).

`COc1cc(C2CC(c3ccc(Cl)cc3)=Nc3c(C)nn(-c4ccccc4)c3N2)ccc1Oc1nc2c(c(=O)n(C)c(=O)n2C)n1C` (centres undefined) showed a CC50 at 72 h [1] of over 200 µg/mL, an inhibition of growth at 20 µg/mL [2] of 0% and an HC50 at 48 h [6] of over 200 µg/mL. The inhibition of growth at 20 µg/mL [3] was 80.3%, the inhibition of growth at 20 µg/mL [4] was 0% and the IC50 [7] was 14.1 µg/mL (≈ 21.7 µM).

With `COc1cc(C2CC(c3ccc(F)cc3)=Nc3c(C)nn(-c4ccccc4)c3N2)ccc1Oc1nc2c(c(=O)n(C)c(=O)n2C)n1C` (centres undefined) the CC50 at 72 h [1] was over 200 µg/mL, the inhibition of growth at 20 µg/mL [2] was 0% and the HC50 at 48 h [6] was over 200 µg/mL. The inhibition of growth at 20 µg/mL [3] was 91.7%, the inhibition of growth at 20 µg/mL [4] was 23.5% and the IC50 [7] was 12.5 µg/mL (≈ 19.7 µM).

`COc1cc(C2CC(c3ccc(C)cc3)=Nc3c(C)nn(-c4ccccc4)c3N2)ccc1Oc1nc2c(c(=O)n(C)c(=O)n2C)n1C` (centres undefined) showed a CC50 at 72 h [1] of over 200 µg/mL, an inhibition of growth at 20 µg/mL [2] of 0% and an HC50 at 48 h [6] of over 200 µg/mL. It also gave an inhibition of growth at 20 µg/mL [3] of 93.5%, an inhibition of growth at 20 µg/mL [4] of 37.7% and an IC50 [7] of 12.3 µg/mL (≈ 19.5 µM).

With `COc1ccc(C2=Nc3c(C)nn(-c4ccccc4)c3NC(c3ccc(Oc4nc5c(c(=O)n(C)c(=O)n5C)n4C)c(OC)c3)C2)cc1` (centres undefined) the CC50 at 72 h [1] was over 200 µg/mL, the inhibition of growth at 20 µg/mL [2] was 0% and the HC50 at 48 h [6] was over 200 µg/mL. For the same compound, the inhibition of growth at 20 µg/mL [3] was 84.4%, the inhibition of growth at 20 µg/mL [4] was 26.9% and the IC50 [7] was 13.1 µg/mL (≈ 20.3 µM).

`COc1cc(C2CC(c3cc(OC)c(OC)c(OC)c3)=Nc3c(C)nn(-c4ccccc4)c3N2)ccc1Oc1nc2c(c(=O)n(C)c(=O)n2C)n1C` (centres undefined) gave a CC50 at 72 h [1] of over 200 µg/mL, an inhibition of growth at 20 µg/mL [2] of 0% and an HC50 at 48 h [6] of over 200 µg/mL. It also gave an EC50 [8] of 20.3 µg/mL (≈ 28.7 µM), an inhibition of growth at 20 µg/mL [3] of 94.2% and an inhibition of growth at 20 µg/mL [4] of 56.6%. It also gave an IC50 [7] of 11.3 µg/mL (≈ 16 µM).

For `C[C@@H]1[C@H](O)[C@@H](C)/C=C/C=C/C=C/C=C/C=C/C=C/C=C/[C@H](O[C@@H]2O[C@H](C)[C@@H](O)[C@H](N)[C@@H]2O)C[C@@H]2O[C@](O)(C[C@@H](O)C[C@@H](O)[C@H](O)CC[C@@H](O)C[C@@H](O)CC(=O)O[C@H]1C)C[C@H](O)[C@H]2C(=O)O` [AMPHOTERICIN B], the CC50 at 72 h [1] was 36 µg/mL (≈ 39 µM), the inhibition of growth at 20 µg/mL [2] was 100% and the EC50 [5] was 0.05 µg/mL (≈ 0.0541 µM).

Work on `O=C(Cn1ccnc1[N+](=O)[O-])NCc1ccccc1` [BENZNIDAZOLE] yielded a CC50 at 72 h [1] of 180 µg/mL (≈ 692 µM), an EC50 [8] of 10.7 µg/mL (≈ 41.1 µM) and an inhibition of growth at 20 µg/mL [4] of 100%.

Work on `CCN(CC)CCCC(C)Nc1ccnc2cc(Cl)ccc12` (centres undefined) [CHLOROQUINE] yielded an inhibition of growth at 20 µg/mL [3] of 58.2%.
